From US6693216B2, “Calcium double salts” (Nutrinova Nutrition Specialties & Food Ingredients GmbH, priority 2000, dated 2004)
Read-outs that look alike come from different tables or passages of the source.

Assays:
Lactic acid bacteria = details: Part I, 1 g/l in apple juice pH 4.5, 25° C.
Clostridia = details: Part I, 1 g/l in apple juice pH 4.5, 25° C.
Bacilli = details: Part I, 1 g/l in apple juice pH 4.5, 25° C.
Thermophilic bacilli = details: Part I, 1 g/l in apple juice pH 4.5, 25° C.
Acetic acid bacteria = details: Part I, 1 g/l in apple juice pH 4.5, 25° C.
Yeasts = details: Part I, 1 g/l in apple juice pH 4.5, 25° C.
Molds I = details: Part I, 1 g/l in apple juice pH 4.5, 25° C.
Gram-negative bacteria = details: Part I, 1 g/l in apple juice pH 4.5, 25° C.
Gram-positive bacteria = details: Part I, 1 g/l in apple juice pH 4.5, 25° C.
[1] = sealed
Source text: Salts prepared as in example 1 were dried, stored under the specified conditions without the addition of other substances and checked at regular intervals visually for discoloration: […]

## C/C=C/C=C/C(=O)[O-].[K+] [Potassium Sorbate]
Lactic acid bacteria; 1 day after inoculation (1.9 × 10^4)
  Number of surviving microorganisms per g of contaminated sample, Lactic acid bacteria: 1.3 × 10^4 CFU/g
Lactic acid bacteria; 3 days after inoculation (1.9 × 10^4)
  Number of surviving microorganisms per g of contaminated sample, Lactic acid bacteria: 1.2 × 10^6 CFU/g
Lactic acid bacteria; 7 days after inoculation (1.9 × 10^4)
  Number of surviving microorganisms per g of contaminated sample, Lactic acid bacteria: 1.7 × 10^6 CFU/g
Lactic acid bacteria; 14 days after inoculation (1.9 × 10^4)
  Number of surviving microorganisms per g of contaminated sample, Lactic acid bacteria: 1.2 × 10^7 CFU/g
Clostridia; 1 day after inoculation (1.4 × 10^4)
  Number of surviving microorganisms per g of contaminated sample, Clostridia: 1.1 × 10^3 CFU/g
Clostridia; 3 days after inoculation (1.4 × 10^4)
  Number of surviving microorganisms per g of contaminated sample, Clostridia: 450 CFU/g
Clostridia; 7 days after inoculation (1.4 × 10^4)
  Number of surviving microorganisms per g of contaminated sample, Clostridia: 160 CFU/g
Clostridia; 14 days after inoculation (1.4 × 10^4)
  Number of surviving microorganisms per g of contaminated sample, Clostridia: 250 CFU/g
Bacilli; 1 day after inoculation (1.5 × 10^4)
  Number of surviving microorganisms per g of contaminated sample, Bacilli: 1.4 × 10^3 CFU/g
Bacilli; 3 days after inoculation (1.5 × 10^4)
  Number of surviving microorganisms per g of contaminated sample, Bacilli: (<100) CFU/g
Bacilli; 7 days after inoculation (1.5 × 10^4)
  Number of surviving microorganisms per g of contaminated sample, Bacilli: 1.4 × 10^3 CFU/g
Bacilli; 14 days after inoculation (1.5 × 10^4)
  Number of surviving microorganisms per g of contaminated sample, Bacilli: 1.3 × 10^3 CFU/g
Thermophilic bacilli; 1 day after inoculation (1.3 × 10^4)
  Number of surviving microorganisms per g of contaminated sample, Thermophilic bacilli: 1.6 × 10^3 CFU/g
Thermophilic bacilli; 3 days after inoculation (1.3 × 10^4)
  Number of surviving microorganisms per g of contaminated sample, Thermophilic bacilli: 900 CFU/g
Thermophilic bacilli; 7 days after inoculation (1.3 × 10^4)
  Number of surviving microorganisms per g of contaminated sample, Thermophilic bacilli: <100 CFU/g
Thermophilic bacilli; 14 days after inoculation (1.3 × 10^4)
  Number of surviving microorganisms per g of contaminated sample, Thermophilic bacilli: <10 CFU/g
Acetic acid bacteria; 1 day after inoculation (2.3 × 10^4)
  Number of surviving microorganisms per g of contaminated sample, Acetic acid bacteria: 1.7 × 10^4 CFU/g
Acetic acid bacteria; 3 days after inoculation (2.3 × 10^4)
  Number of surviving microorganisms per g of contaminated sample, Acetic acid bacteria: 4.3 × 10^5 CFU/g
Acetic acid bacteria; 7 days after inoculation (2.3 × 10^4)
  Number of surviving microorganisms per g of contaminated sample, Acetic acid bacteria: 1.3 × 10^3 CFU/g
Acetic acid bacteria; 14 days after inoculation (2.3 × 10^4)
  Number of surviving microorganisms per g of contaminated sample, Acetic acid bacteria: 2.7 × 10^5 CFU/g
Yeasts; 1 day after inoculation (2.5 × 10^4)
  Number of surviving microorganisms per g of contaminated sample, Yeasts: 2.7 × 10^5 CFU/g
Yeasts; 3 days after inoculation (2.5 × 10^4)
  Number of surviving microorganisms per g of contaminated sample, Yeasts: 1.1 × 10^4 CFU/g
Yeasts; 7 days after inoculation (2.5 × 10^4)
  Number of surviving microorganisms per g of contaminated sample, Yeasts: 6.0 × 10^2 CFU/g
Yeasts; 14 days after inoculation (2.5 × 10^4)
  Number of surviving microorganisms per g of contaminated sample, Yeasts: <10 CFU/g
Molds I; 1 day after inoculation (1.7 × 10^4)
  Number of surviving microorganisms per g of contaminated sample, Molds I: 5.0 × 10^4 CFU/g
Molds I; 3 days after inoculation (1.7 × 10^4)
  Number of surviving microorganisms per g of contaminated sample, Molds I: <100 CFU/g
Molds I; 7 days after inoculation (1.7 × 10^4)
  Number of surviving microorganisms per g of contaminated sample, Molds I: <10 CFU/g
Molds I; 14 days after inoculation (1.7 × 10^4)
  Number of surviving microorganisms per g of contaminated sample, Molds I: <10 CFU/g
Gram-negative bacteria; 1 day after inoculation (2.4 × 10^4)
  Number of surviving microorganisms per g of contaminated sample, Gram-negative bacteria: 2.9 × 10^4 CFU/g
Gram-negative bacteria; 3 days after inoculation (2.4 × 10^4)
  Number of surviving microorganisms per g of contaminated sample, Gram-negative bacteria: 1.5 × 10^3 CFU/g
Gram-negative bacteria; 7 days after inoculation (2.4 × 10^4)
  Number of surviving microorganisms per g of contaminated sample, Gram-negative bacteria: 350 CFU/g
Gram-negative bacteria; 14 days after inoculation (2.4 × 10^4)
  Number of surviving microorganisms per g of contaminated sample, Gram-negative bacteria: <10 CFU/g
Gram-positive bacteria; 1 day after inoculation (2.6 × 10^4)
  Number of surviving microorganisms per g of contaminated sample, Gram-positive bacteria: 5.5 × 10^4 CFU/g
Gram-positive bacteria; 3 days after inoculation (2.6 × 10^4)
  Number of surviving microorganisms per g of contaminated sample, Gram-positive bacteria: 7.0 × 10^3 CFU/g
Gram-positive bacteria; 7 days after inoculation (2.6 × 10^4)
  Number of surviving microorganisms per g of contaminated sample, Gram-positive bacteria: <100 CFU/g
Gram-positive bacteria; 14 days after inoculation (2.6 × 10^4)
  Number of surviving microorganisms per g of contaminated sample, Gram-positive bacteria: <10 CFU/g

## CCC(=O)[O-].O=C([O-])c1ccccc1.[Ca+2]
[1]; dark at 7° C.
  Time after yellow-brown discoloration of a 1% strength aqueous solution: 12 months
  Time after yellow-brown discoloration of the powder: 12 months
[1]; dark at 25° C.
  Time after yellow-brown discoloration of a 1% strength aqueous solution: 8 months
  Time after yellow-brown discoloration of the powder: 7 months
[1]; under sunlight at 7° C.
  Time after yellow-brown discoloration of a 1% strength aqueous solution: 12 months
  Time after yellow-brown discoloration of the powder: 12 months
[1]; under sunlight at 25° C.
  Time after yellow-brown discoloration of a 1% strength aqueous solution: 7-8 months
  Time after yellow-brown discoloration of the powder: 8 months
